Series [1] can be described thus: Side effects in Example 3: body weight, meals, blood glucose, serological profiles, liver weight. The series is classed as in vivo, nude mice. Particulars: day 21. The procedure: Nude mice subcutaneously transplanted with Huh-7 cells, prepared in the same manner as in Example 1, were divided in the following six groups.
In each of the groups, the tumor volume and the body weight of the mice were measured in the same manner as in Example 1, and the average amount of meals taken per day was calculated.

In another series the test system is CD3 positive T cells. Kind of series: Immunostaining of liver tumor tissue with CD3 antibody (Example 10). The class given is in vivo, STAM mice (C57BL6/N). The note with it: 2DG 100 mg/kg/day i.p. every day; high dose 2DG-PLGA 200 μL of 100 mg/mL once a week. The procedure:
Further, the immunostaining of the liver tumor tissue was carried out using a rabbit monoclonal CD3 antibody (manufactured by GeneTex, Inc.).

For series [2] the following is noted: cited from earlier work.
A further series relates to Hepatoma cell line Huh-7. Kind of series: Anticancer effect of 2DG in nude mice subcutaneously transplanted with hepatoma cell line (Example 1). The series is classed as in vivo, nude mice (BALBc-nu/nu). The note with it: for tumor volume over time (FIG. 2): combination with sorafenib 5 mg/kg/day orally. The protocol: The Hepatoma cell line Huh-7 (obtained from Cell Resource Center for Biomedical Research, Cell Bank, Institute of Development, Aging and Cancer, National University Corporation Tohoku University) to be transplanted to the mice was cultured at 37° C. using a 5% CO2 incubator. Dulbecco's modified Eagle's medium (DMEM) containing 10% fetal bovine serum was used as the medium for culturing Huh-7 cells. Six-week-old nude mice (male, BALBc-nu/nu mice) were subcutaneously transplanted with 1×10^7 Huh-7 cells. In order to confirm the survival and growth of the transplanted cells, the measurement of tumor size was carried out using a pair of vernier calipers. […] (a) Control group: 200 μL of PBS was administered intraperitoneally every day. […] At the time points of 7 days, 14 days and 21 days after the start of administration, the average amount of meals taken per day was calculated from the amount of meals taken in the previous week. […] Further, 21 days after the start of administration, the tumors were observed, blood was collected from the mice in accordance with a conventional method, and the livers were removed from the mice. The serological profiles of the collected blood samples were measured using SPOTCHEM (trademark) EZ SP-4430 system (manufactured by Arkray, Inc.). In addition, the weight of the removed livers was measured.

A short description of series [3]: Side effects in Example 1: body weight, meals, blood glucose, serological profiles, liver weight. The series is classed as in vivo, nude mice (BALBc-nu/nu). Particulars: for Fasting blood glucose / Liver weight / Total cholesterol / ALT / Neutral fat: day 21. The protocol: Six-week-old nude mice (male, BALBc-nu/nu mice) were subcutaneously transplanted with 1×10^7 Huh-7 cells. In order to confirm the survival and growth of the transplanted cells, the measurement of tumor size was carried out using a pair of vernier calipers. At the time point when the tumors in the mice had reached a volume of from 100 to 150 mm^3, the mice were divided into the following six groups.
In each of the groups, the tumor volume and the body weight of the mice were measured every 3 days from the start of administration. At the time points of 7 days, 14 days and 21 days after the start of administration, the average amount of meals taken per day was calculated from the amount of meals taken in the previous week. […] Further, 21 days after the start of administration, the tumors were observed, blood was collected from the mice in accordance with a conventional method, and the livers were removed from the mice. The serological profiles of the collected blood samples were measured using SPOTCHEM (trademark) EZ SP-4430 system (manufactured by Arkray, Inc.). In addition, the weight of the removed livers was measured.

The mark [4] stands for this setting: 2DG 100 mg/kg/day into jugular vein once a week.
Where [5] appears, read: 2DG 100 mg/kg/day intraperitoneally every day.
Setting [6] is: high dose 2DG 1,000 mg/kg/day i.p. (alone or with sorafenib 5 mg/kg/day orally).
[7] abbreviates: low dose 2DG 100 mg/kg/day i.p. (alone or with sorafenib 5 mg/kg/day orally).
Setting [8] is: high dose 2DG 1,000 mg/kg/day i.p., day 14 after start.

As for `O=CC[C@@H](O)[C@H](O)[C@H](O)CO` [2DG, 2-Deoxy-D-glucose], in series [1] (setting [4]), the ALT turned out to be 49 ± 20.9 U/L, the Fasting blood glucose is 73.8 ± 14.0 mg/dL, the Liver weight worked out at 1.10 ± 0.19 g and the Neutral fat was 67.6 ± 28.5 mg/dL. The compound further yielded a Total cholesterol in series [1] (setting [4]) of 115.4 ± 10.1 mg/dL. In series [1] (setting [5]), this compound returned an ALT of 38.6 ± 23.5 U/L, a Fasting blood glucose of 83.2 ± 38.2 mg/dL, a Liver weight of 1.35 ± 0.19 g and a Total cholesterol of 113.8 ± 25.3 mg/dL. The “infiltration of T cells into the interior of tumors (FIG. 29)” value in the series with CD3 positive T cells is “increased infiltration of T cells”. For the same compound, the side-effects result in series [2] (dose of from 63 to 88 mg/kg) is “severe side-effects such as gastrointestinal bleeding, long QT syndrome and hyperglycemia were observed”. Moreover, the tolerated dose in series [2] (phase 1 clinical trial, oral administration, combined with docetaxel) is ≤ 63 mg/kg. Also, the “size of the tumors (appearance, FIG. 1)” value with Hepatoma cell line Huh-7 (21 days after start, 2DG i.p. every day, sorafenib 5 mg/kg/day orally) is “decreased the size of the tumors”. Also, the “tumor volume over time (FIG. 2)” value with Hepatoma cell line Huh-7 (high dose 2DG 1,000 mg/kg/day i.p. every day) was “significant decrease in the tumor volume in a dose-dependent manner”. Further, in the series with Hepatoma cell line Huh-7 (low dose 2DG 100 mg/kg/day i.p. every day), the “tumor volume over time (FIG. 2)” value is on record as “significant decrease in the tumor volume in a dose-dependent manner”. In series [3] (setting [6]), this compound registered a Fasting blood glucose of 77.2 ± 28.0 mg/dL, a Liver weight of 1.10 ± 0.1 g and a Total cholesterol of 110.8 ± 23.6 mg/dL. In series [3] (setting [7]), this compound returned an ALT of 34.8 ± 16.2 mg/dL, a Fasting blood glucose of 79.0 ± 10.9 mg/dL, a Liver weight of 1.21 ± 0.1 g and a Neutral fat of 103.2 ± 24.7 mg/dL. The compound also registered a Total cholesterol in series [3] (setting [7]) of 122.6 ± 19.8 mg/dL. Besides, in series [3] (setting [8]), the “blood glucose level after administration (FIG. 5)” value is reported as “marked increase in the blood glucose level” and the consciousness after administration result is “disturbance of consciousness was observed”.
In series [3] (sorafenib 5 mg/kg/day orally), `CNC(=O)c1cc(Oc2ccc(NC(=O)Nc3ccc(Cl)c(C(F)(F)F)c3)cc2)ccn1` [Sorafenib, sorafenib] yielded an ALT of 35.0 ± 10.3 mg/dL, a Fasting blood glucose of 84.8 ± 11.8 mg/dL, a Neutral fat of 95.2 ± 35.7 mg/dL and a Total cholesterol of 120.4 ± 17.8 mg/dL.

(Values after US20200138840A1, “PHARMACEUTICAL COMPOSITION AND TUMOR IMMUNOACTIVITY PROMOTER” (SENTAN Pharma inc., priority 2017, published 2020).)
